The values that follow come from ChEMBL document CHEMBL6109078, “Pyrylium derivatives as outer membrane permeabilizers against MDR gram-negative bacteria via multi-target mode of action” (Eur J Med Chem, 2025).

Structures are written as SMILES. Active and inactive are the calls of the source. The calls are words filed in the database; no cut-off is given here.

By Kd is commonly meant the constant that tells how readily two partners part at equilibrium.

Test [1] has as its system Bacteria. Kind of test: Binding affinity to His-tagged LptC (unknown origin) extracted from Escherichia coli BL21 (DE3) cells by BLI analysis.
Test [2] has as its system Acinetobacter baumannii. Kind of test: Antibacterial activity against Acinetobacter baumannii ATCC 19606 assessed as bacterial killing at 100 microg/ml measured within 4 to 12 hrs by time-kill kinetics analysis. Particulars: dose 100 µg/ml; time 4-12 hrs. Type of test: functional.
Test [3] deals with Escherichia coli. As to the kind of experiment: Synergistic antibacterial activity against Escherichia coli ATCC 25922 infected in Galleria mellonella larvae assessed as survival rate of larvae at 50 microg/ml in presence of polymyxin B relative to control. In kind it is functional.
Test [4] relates to Escherichia coli. As to the kind of experiment: Antibacterial activity against Escherichia coli ATCC 25922 infected in Galleria mellonella larvae assessed as survival rate of larvae at 50 microg/ml relative to control. Type of test: functional.
Test [5] concerns Lipopolysaccharide (LPS). Kind of test: Binding affinity to LPS (unknown origin) assessed as exothermic heat release at 100 mM by ITC analysis. Particulars: time <= 40.0 min. In general terms: Isothermal titration calorimetry measures the heat released or taken up as one component is titrated into another.
In test [6] the target is Lipopolysaccharide (LPS). As to the kind of experiment: Binding affinity to LPS (unknown origin) assessed as dissociation constant by BLI analysis.
The test system of test [7] is Lipopolysaccharide (LPS). Kind of test: Binding affinity to LPS (unknown origin) by BLI analysis. The following applies: dose 3.13-25 µg/ml.
Test [8] concerns Acinetobacter baumannii. As to the kind of experiment: Synergistic antibacterial activity against Acinetobacter baumannii ATCC 19606 infected in Galleria mellonella larvae assessed as survival rate of larvae at 50 microg/ml measured after 96 hrs in presence of polymyxin B relative to control. In kind it is functional.
The test system of test [9] is Acinetobacter baumannii. As to the kind of experiment: Antibacterial activity against Acinetobacter baumannii ATCC 19606 infected in Galleria mellonella larvae assessed as survival rate of larvae at 50 microg/ml measured after 96 hrs relative to control. In kind it is functional.
Test [10] is described as follows: Binding affinity to His-tagged LptA (unknown origin) extracted from Escherichia coli BL21 (DE3) cells assessed as dissociation constant by BLI analysis. On the set-up: species or system Bacteria.
For test [11], the system named is Bacteria. Kind of test: Inhibition of His-tagged His-tagged LptA/LptC (unknown origin) protein-protein interaction extracted from Escherichia coli BL21 (DE3) cells by BLI analysis. The following applies: dose 0.39-1.56 µg/ml.

Consider `CN1CCOc2cc(/C=C/c3cc(C(C)(C)C)[o+]c(C(C)(C)C)c3)ccc21.O=S(=O)([O-])C(F)(F)F`, for which the outcome in the test on Bacteria [1] was inactive.
On to `CCN(CC)c1ccc(/C=C/c2cc(C(C)(C)C)[o+]c(C(C)(C)C)c2)cc1.O=S(=O)([O-])C(F)(F)F`, for which the figures for the Activity in the test with Acinetobacter baumannii [2], in the test on Lipopolysaccharide (LPS) [5] and in the test on Lipopolysaccharide (LPS) [7] were 100%, “Time-dependent-effect” and “Dose-dependent-effect”, respectively. The survival at 50 µg/mL in the test on Escherichia coli [3] was 70%; with Escherichia coli [4] it was 20%; in the test with Acinetobacter baumannii [8] it was 80%; in the test on Acinetobacter baumannii [9], 10%. The values for the Kd (on Lipopolysaccharide (LPS) [6]; in [10]) were 4 µM and 0.48 µM, respectively. Besides, the inhibition result in the test with Bacteria [11] was “Dose-dependent-effect”.
With `CC(C)(C)c1cc(/C=C/c2ccc(N3CCCC3)cc2)cc(C(C)(C)C)[o+]1.O=S(=O)([O-])C(F)(F)F`, the Activity with Acinetobacter baumannii [2] came out at 100%. Moreover, the Kd in [10] was 15 µM.
